One data set addresses SOD1. To be noted: ASO.
For another data set, the target named is APOL1. Particulars: ASO.

Values joined by “and” are separate entries in the source; they are usually repeats but may differ in a detail not shown here. Identical values can stand only once. After the bases stand the sugars from the 5' end (letter, count) and the backbone: PS all phosphorothioate, else s phosphorothioate and o phosphodiester by linkage. Methylation of C is not given here. e = 2'-O-(2-methoxyethyl) (MOE); k = constrained ethyl (cEt); d = 2'-deoxy (DNA)

“GATCATAAATCAGTTTC (sugars e2 k2 d9 k2 e2, PS)” gave a target mRNA inhibition with SOD1 (HepG2, 5 µM) of 38%.

With “CGCGACTACTTTATAGG (sugars e3 k2 d7 k2 e3, PS)”, the target mRNA inhibition with SOD1 (HepG2, 3 µM) is 11%.

With “TCCAACATGCCTCTCTT (sugars e3 k2 d7 k2 e3, PS)”, the target mRNA inhibition with SOD1 (HepG2, 3 µM) is 0%.

As for “TCACACAATTACACTTT (sugars e2 k2 d9 k2 e2, PS)”, the target mRNA inhibition in the data set with SOD1 (HepG2, 5 µM) was determined as 39%.

Regarding “CTACAGCTAGCAGGATA (sugars e3 k2 d7 k2 e3, PS)”, the target mRNA inhibition in the data set with SOD1 (HepG2, 0.1875 µM) was 44%; with SOD1 (HepG2, 0.75 µM), 62%; in the data set with SOD1 (HepG2, 3 µM), 55% and 80%; in the data set with SOD1 (HepG2, 12 µM), 86%.

“AATGGTCTCCTGAGAGTGAG (sugars e5 d10 e5, PS)” had a target mRNA inhibition with SOD1 (HepG2, 5 µM) of 22%.

Turning to GCTGGGTCTGTAGTGG (sugars k4 d9 k3, PS), the target mRNA inhibition with APOL1 (A431, 0.0625 µM) amounted to 49%; in the data set with APOL1 (A431, 0.25 µM), 70%; with APOL1 (A431, 1 µM) it was 82%.

“CGCAATGCTGACTTGG (sugars kkddddekekeddddd, PS)”: the target mRNA inhibition turned out to be 22% in the data set with APOL1 (A431, 0.0156 µM); 48% with APOL1 (A431, 0.0625 µM); 80% with APOL1 (A431, 0.25 µM); 93% with APOL1 (A431, 1 µM); 94% with APOL1 (A431, 2 µM).

Turning to “GTTATATTTGATCCTC (sugars kdddddkekekddddd, PS)”, the target mRNA inhibition in the data set with APOL1 (A431, 0.0156 µM) was determined as 26%; with APOL1 (A431, 0.0625 µM), 56%; with APOL1 (A431, 0.25 µM) it was 78%; in the data set with APOL1 (A431, 1 µM), 92%; with APOL1 (A431, 2 µM), 95%.

“TTGTAAGTGCAACCAA (sugars kkkddddkekekdddd, PS)”: the target mRNA inhibition with APOL1 (A431, 2 µM) came out at 35%.

Regarding “TTTGTAAGTGCAACCA (sugars kddddkekekeddddd, PS)”, the target mRNA inhibition with APOL1 (A431, 2 µM) worked out at 95%.

In the data set with APOL1 (A431, 2 µM), “CTTTATACCAGTGTCT (sugars kkddddkdkdkddddd, PS)” had a target mRNA inhibition of 92%.

Turning to “TGTTATATTTGATCCT (sugars kkkddddkdkdkdddd, PS)”, the target mRNA inhibition in the data set with APOL1 (A431, 2 µM) was found to be 66%.

For the sequence GCAAGGCTAAGTTCCG (sugars k4 d9 k3, PS), the target mRNA inhibition worked out at 79% with APOL1 (A431, 0.0625 µM); 92% with APOL1 (A431, 0.25 µM); 97% with APOL1 (A431, 1 µM).

Consider “AACACATCATTGGGTT (sugars k2 d4 e3 k2 d5, PS)”, for which the target mRNA inhibition with APOL1 (A431, 2 µM) is 43%.

As for “TTTAAACTCAGGTGAC (sugars kddddkekekeddddd, PS)”, the target mRNA inhibition with APOL1 (A431, 2 µM) was determined as 43%.

Take “ACTTTACATGCACGAT (sugars kkdddddddddekeke, PS)”: the target mRNA inhibition with APOL1 (A431, 0.0156 µM) is 8%; in the data set with APOL1 (A431, 0.0625 µM) it was 25%; with APOL1 (A431, 0.25 µM), 58%; with APOL1 (A431, 1 µM) it was 84%.

In the case of CTCATTATCAGTCAGC (sugars k4 d9 k3, PS), the target mRNA inhibition with APOL1 (A431, 0.0625 µM) turned out to be 57%; with APOL1 (A431, 0.25 µM) it was 65%; with APOL1 (A431, 1 µM), 64%.

On to CACCCTCTTTATCCCC (sugars k4 d9 k3, PS), for which the target mRNA inhibition in the data set with APOL1 (A431, 0.0625 µM) is 47% and 62%; with APOL1 (A431, 0.25 µM), 76% and 82%; in the data set with APOL1 (A431, 1 µM), 90%.

In turn, “GAGTATTGTTTTTGTG (sugars k3 d4 k3 e1 d5, PS)” registered a target mRNA inhibition with APOL1 (A431, 2 µM) of 88%.

For the sequence ATCCTGGGCGGCGACA (sugars k4 d9 k3, PS), the target mRNA inhibition in the data set with APOL1 (A431, 0.0625 µM) is 35% and 28%; with APOL1 (A431, 0.25 µM), 62% and 50%; with APOL1 (A431, 1 µM) it was 82% and 72%.

As for TCAACACATCATTGGG (sugars k4 d9 k3, PS), the target mRNA inhibition with APOL1 (A431, 0.0625 µM) amounted to 38%; in the data set with APOL1 (A431, 0.25 µM) it was 73%; with APOL1 (A431, 1 µM), 90%.

For the sequence “TCCGTCAATATATTCT (sugars kkddddkekekddddd, PS)”, the target mRNA inhibition with APOL1 (A431, 2 µM) was found to be 94%.

With “TTATATTTGATCCTCA (sugars kkddddekekeddddd, PS)”, the target mRNA inhibition with APOL1 (A431, 2 µM) stood at 96%.

On to “TTCTCATGGTACAGGA (sugars kkkddddkekekdddd, PS)”, for which the target mRNA inhibition with APOL1 (A431, 2 µM) came out at 54%.

With “CTTTAAACTCAGGTGA (sugars kkddddkdkdkddddd, PS)”, in the data set with APOL1 (A431, 2 µM), the target mRNA inhibition came out at 89%.

“TCTATTAGAGGGCTAG (sugars kkddddkdkdkddddd, PS)” returned a target mRNA inhibition with APOL1 (A431, 2 µM) of 68%.

Consider “CTGTTCTAACTCTTGG (sugars kkddddekekeddddd, PS)”, for which the target mRNA inhibition with APOL1 (A431, 0.0156 µM) stood at 43%; in the data set with APOL1 (A431, 0.0625 µM) it was 64%; with APOL1 (A431, 0.25 µM), 83%; with APOL1 (A431, 1 µM), 92%; with APOL1 (A431, 2 µM), 97%.

As to “CTAATTTTCTGACTGT (sugars kkddddkekekkdddd, PS)”, in the data set with APOL1 (A431, 2 µM), the target mRNA inhibition came out at 71%.

“AATTATGGAATTGCAG (sugars kdddddkekekddddd, PS)” came in with a target mRNA inhibition with APOL1 (A431, 2 µM) of 52%.

As for TCATCATAGATACTCC (sugars k4 d9 k3, PS), the target mRNA inhibition in the data set with APOL1 (A431, 0.0625 µM) amounted to 33%; in the data set with APOL1 (A431, 0.25 µM) it was 67%; with APOL1 (A431, 1 µM), 84%.

In the case of CAAGGCTTTTGATGAC (sugars k4 d9 k3, PS), the target mRNA inhibition with APOL1 (A431, 0.0625 µM) was 28%; with APOL1 (A431, 0.25 µM), 58%; with APOL1 (A431, 1 µM), 75%.

The values are drawn from the OligoGym collection.
